Source: ChEMBL document CHEMBL1150809, “New acyclic sesquiterpenes and norsesquiterpenes from the Caribbean Gorgonian Plexaurella grisea” (J Nat Prod, 2001)
≈ marks a conversion by molar mass, not a printed value.

What was measured:
Type in all cases: functional, cell-based
P388 = assay: Cytotoxicity against mouse P388 cells
A549 = assay: Cytotoxicity against human A549 cells
HT-29 = assay: Cytotoxicity against human HT-29 cells
SK-MEL-28 = assay: Cytotoxicity against human SK-MEL-28 cells

Row | Compound | IC50 (P388) | IC50 (A549) | IC50 (HT-29) | IC50 (SK-MEL-28)
1 | C=C/C(C)=C/CC(OC(C)=O)C(=C)CCC=C(C)C (stereo not given) | 2.5 µg/mL (≈ 9.53 µM) | 5 µg/mL (≈ 19.1 µM) | 5 µg/mL (≈ 19.1 µM) | 5 µg/mL (≈ 19.1 µM)
2 | C=C/C(C)=C/C=C/C(C)CC(=O)CC(C)C (stereo not given) | 2.5 µg/mL (≈ 11.3 µM) | 5 µg/mL (≈ 22.7 µM) | 5 µg/mL (≈ 22.7 µM) | 5 µg/mL (≈ 22.7 µM)
3 | CC(C)=C/C=C\C(C)/C=C/C=C(\C)C=O (stereo not given) | > 10 µg/mL | > 10 µg/mL | > 10 µg/mL | > 10 µg/mL
4 | C=C/C(C)=C\C=C\C(C)CC(=O)CC(C)C (stereo not given) | 2.5 µg/mL (≈ 11.3 µM) | 2.5 µg/mL (≈ 11.3 µM) | 2.5 µg/mL (≈ 11.3 µM) | 2.5 µg/mL (≈ 11.3 µM)
5 | CC(C)=CCCC(C)/C=C/C=C(\C)C=O (stereo not given) | 0.5 µg/mL (≈ 2.42 µM) | 2.5 µg/mL (≈ 12.1 µM) | 2.5 µg/mL (≈ 12.1 µM) | 2.5 µg/mL (≈ 12.1 µM)
